Molecular target: T1, α1A-AR (Homo sapiens, UniProt P35348)
T1 sequence (P35348 1-466): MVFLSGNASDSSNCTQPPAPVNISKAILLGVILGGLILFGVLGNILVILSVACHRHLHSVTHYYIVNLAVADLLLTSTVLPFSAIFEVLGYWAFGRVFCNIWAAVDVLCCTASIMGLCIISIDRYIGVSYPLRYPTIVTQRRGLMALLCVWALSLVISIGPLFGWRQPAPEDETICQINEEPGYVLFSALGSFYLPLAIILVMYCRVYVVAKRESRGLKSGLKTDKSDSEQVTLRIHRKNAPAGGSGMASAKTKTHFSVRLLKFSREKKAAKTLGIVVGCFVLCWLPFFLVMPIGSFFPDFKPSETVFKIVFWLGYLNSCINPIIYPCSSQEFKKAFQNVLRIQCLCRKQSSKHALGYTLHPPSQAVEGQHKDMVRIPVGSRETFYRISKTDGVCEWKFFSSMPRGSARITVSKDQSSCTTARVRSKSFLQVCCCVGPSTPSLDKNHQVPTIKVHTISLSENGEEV
Assay type: binding
Design: expressed in transfected cells; host or cells: COS-7, transient (calcium phosphate)
Details: ^125I-HEAT 0.4 nM, HEAT 5 µM alone
Method: Binding experiments were performed in a 100 µL reaction mix at room temperature in buffer composed of 50 mM Tris-HCl, pH 7.4, 10 mM MgCl2, 1 g/L BSA. Reactions were stopped by filtration through 96 GF/C filter plates pre-incubated with 0.5% polyethylenimine.
Binding data were analyzed by nonlinear regression using the KaleidaGraph 4.0 software (Synergy software, Reading, PA). pKD values and Bmax (number of binding sites) were determined by applying a nonlinear regression to data obtained with saturation binding assays. The nonlinear regression used was BS = (Bmax*A)/KD+A, where BS is the specific binding, Bmax the number of binding sites, A the concentration of radioligand, and KD the dissociation constant of the radioligand. Data resulting from competition binding assays were analyzed using the Hill equation for IC50 and curve slope estimations. […] The linear curves were analyzed with IC50 = Ki+(L/KD)*Ki. Dissociation kinetics were analyzed using a simple equation of exponential decay BS * exp (-Koff*t), where BS is the specific binding at time zero and Koff is the dissociation rate constant. Results are expressed as mean ± s.e. mean from n independent experiments. One-way Anova test was used to compare values. A p<0.05 was accepted for statistical significance.

Q: With O=C1c2ccccc2CCC1CNCCc1ccc(O)c([125I])c1 (stereo not shown) [125I-HEAT] as the compound, how does the “^125I-HEAT dissociation rate (Koff)” value read?
A: Its value is 0.00103 s⁻¹.
